As usually defined, the Vd is the apparent volume that relates the amount in the body to the concentration in plasma or blood. Low values mean little distribution into tissue, high ones wide distribution into tissue. In general, Tmax refers to the time at which the peak concentration occurs. The term bioavailability denotes dose-corrected exposure relative to a reference, in per cent. A high value points to much systemic uptake. Usually half-life stands for the time in which the quantity being followed falls by half.

The results in this text go back to publication PMC12866179, “Oxidized MIF is an Alzheimer’s disease drug target relaying external risk factors to tau pathology” (Cell Reports Medicine, 2025).

For one series, the system named is MIF-wt and MIF-C80W. Description: Stabilization of transiently expressed MIF in HEK-MIF-knockdown cells. Particulars: HEK-MIF-KO cells transfected with rescue constructs. Type of series: cell-based, human. How it is done: Transient transfection of HEK-MIF-knockdown cells with MIF-rescue constructs were carried out with lipofectamine 3000 according to the manufacturer’s recommendations. Briefly, 5x10^5 HEK-MIF-ko cells were seeded into 12-well plates. At the next day the cells were transfected with 2.5 μg of vector DNA. Cells were washed twice with PBS and lysed in PBS/1% NP40 48h after transfection.

A further series concerns Akt. Description: Akt phosphorylation (Ser473) in SH-SY5Y-tau-P301S cells, immunoblot. Type of series: cell-based, human. The settings on record: dose-dependent and MIF-dependent. As for the experimental part:
After the protein concentration of cell lysates and homogenates had been determined using the DC Protein Assay Kit (Bio-Rad), 20 μg of each sample were dissolved in NuPAGE LDS Sample buffer (including 2% β-mercaptoethanol), boiled at 100°C for 5 min and then separated on NuPAGE Novex 4–12% Bis-Tris midi gels (Invitrogen) using NuPAGE MES SDS Running buffer (Invitrogen). Proteins were then transferred to a 0.2 μm nitrocellulose membrane (Amersham) in 24 mM Tris/192 mM glycine/20% MeOH at 400 mA for 2h using a tank blot system (Bio-Rad). In order to detect any blotting artifacts, the proteins on the membranes were visualized with Ponceau S (Sigma). The membranes were destained with PBS and then blocked with PBS/5% nonfat milk (Oxoid) for 1h at RT. Incubations with primary antibodies (diluted 1:1,000) in PBS-T were carried out overnight at 4°C. Then the membranes were washed three times with PBS-T for 10 min and afterward incubated with fluorescent secondary antibodies (IR Dye 680 or 800: Li-COR Biosciences.) diluted 1:20,000 in PBS-T for 1h at RT. Following three washing steps with PBS-T for 10 min each, the membranes were scanned using an LI-COR Odyssey CLX. Signal intensities were calculated using the Image Studio Version 2.1 software (LI-COR Biosciences). Blots were reused for staining with additional primary antibodies following the same procedure.

A further series can be described thus: in vivo. Further details: species or system Sprague Dawley rats. How it is done: Studies investigating the pharmacokinetics of PAV-617 were performed by Vipragen Biosciences Inc in […]. The animal care committee approval numbers for the studies are: M-Tox: VIP/IAEC/41/2016 and PK: VIP/IAEC/316/2021. […]
(C) Pharmacokinetic assessment of PAV-61 7 in Sprague Da wley ra ts (S D). Ma le SD ra ts (n=4) we re dosed via three ro utes na me ly intravenous (IV )- 1 mg/kg, (IP )- 5 mg/kg an d per ora l (P O)- 5 mg/kg. Plasma concentration wa s anal yzed at di ff e ren t time intervals. Pharmacokinetic pa ra met e rs we re de t erm ine d usi ng Win No nlin . Cma x (p ea k pl asma concentration) achieved through IV wa s 12 8 ng / mL, IP wa s 36 2. 6 ng / mL an d PO wa s 15 1. 1 ng / mL at Tmax (time of pe ak concentration obser ved) 1 h, 0. 5 h an d 4 h respectively. Co mpo un d PAV-61 7 ha s mo de rate t1/2 (ter min al ha lf-life ) through IV- 7. 8 h, IP- 7 h an d PO- 3. 3 h. CL (steady-state clearance) wa s found to be mo de rate- 20 mL /m in/kg which wa s 2. 7 5 times lo wer than ra t liver bl oo d flow . Vz (volum e of di str ibuti on) wa s found to be hi gh- 12 . 7 L/kg an d F (fracti on bi oavailabi lity) wa s found to be ver y go od through IP- 80 % an d mo de rate through PO- 41 % . […]

Setting [1] is: male, Sprague-Dawley, rat, ip, 5 mg/kg.
The mark [2] stands for this setting: male, Sprague-Dawley, rat, iv, 1 mg/kg.
The mark [3] stands for this setting: male, Sprague-Dawley, rat, po, 5 mg/kg.

Turning to `CCc1cc(N2CCCC2)cc2[s+]c3cc(N4CCCC4)cc(C)c3nc12.[I-]` [PAV-174, 3,7-Di(pyrrolidine-1-yl) 1-ethyl-9-methyl-phenothiazin-5-ium iodide], in the series on MIF-wt and MIF-C80W, the “stabilization of MIF-wt and MIF-C80W” value was “significant stabilization”. Further, the “phosphorylation of Akt at Ser473” value with Akt was “increased”.
With `[I-].c1cc2nc3ccc(N4CCCC4)cc3[s+]c2cc1N1CCCC1` [PAV-617, 3,7-Di(pyrrolidine-1-yl)phenothiazine-5-ium iodide], the “CL, times lower than rat liver blood flow” value in “in vivo” (male, Sprague-Dawley) was 2. 7 5 times. The same compound showed a Vd in “in vivo” (male, Sprague-Dawley, rat) of 12.7 L/kg. In the series “in vivo” (setting [1]), the Tmax was 0.5 h, the bioavailability was 80% and the half-life was 420 min. In the series “in vivo” (setting [2]), the Tmax is 1 h and the half-life was 468 min. In addition, in the series “in vivo” (setting [3]), the time to peak (Tmax) was 4 h, the bioavailability was 41% and the half-life was 198 min. The “bioavailability following intraperitoneal administration” value in the series “in vivo” (rat, ip) is “high bioavailability”. Also, in “in vivo” (rat, ip, 5 mg/kg), the “Cmax (peak plasma concentration), IP” value is 36 2. 6 ng/mL. For the same compound, in the series “in vivo” (rat, iv, 1 mg/kg), the “Cmax (peak plasma concentration), IV” value is 12 8 ng/mL. Also, in the series “in vivo” (rat, po, 5 mg/kg), the “Cmax (peak plasma concentration), PO” value is recorded as 15 1. 1 ng/mL.
